Source: patent US9655904B2, “Substituted benzoazepines as toll-like receptor modulators” (VentiRx Pharmaceuticals, Inc., priority 2009, dated 2017)
pEC50: −log10 of the molar value.

Tests used:
[1] = molecular target: T1, TLR8 (Homo sapiens, UniProt Q9NR97); assay: PBMC assay for TLR8 (TNFα in supernatants by ELISA); assay type: cell-based; set-up: Peripheral blood mononuclear cells (PBMCs) from human blood were isolated; endogenous in cells; host or cells: human PBMCs; details: human PBMCs incubated with compound overnight, MC50 = concentration at which 50% of maximum induction is seen
T1 sequence (Q9NR97 27-1041): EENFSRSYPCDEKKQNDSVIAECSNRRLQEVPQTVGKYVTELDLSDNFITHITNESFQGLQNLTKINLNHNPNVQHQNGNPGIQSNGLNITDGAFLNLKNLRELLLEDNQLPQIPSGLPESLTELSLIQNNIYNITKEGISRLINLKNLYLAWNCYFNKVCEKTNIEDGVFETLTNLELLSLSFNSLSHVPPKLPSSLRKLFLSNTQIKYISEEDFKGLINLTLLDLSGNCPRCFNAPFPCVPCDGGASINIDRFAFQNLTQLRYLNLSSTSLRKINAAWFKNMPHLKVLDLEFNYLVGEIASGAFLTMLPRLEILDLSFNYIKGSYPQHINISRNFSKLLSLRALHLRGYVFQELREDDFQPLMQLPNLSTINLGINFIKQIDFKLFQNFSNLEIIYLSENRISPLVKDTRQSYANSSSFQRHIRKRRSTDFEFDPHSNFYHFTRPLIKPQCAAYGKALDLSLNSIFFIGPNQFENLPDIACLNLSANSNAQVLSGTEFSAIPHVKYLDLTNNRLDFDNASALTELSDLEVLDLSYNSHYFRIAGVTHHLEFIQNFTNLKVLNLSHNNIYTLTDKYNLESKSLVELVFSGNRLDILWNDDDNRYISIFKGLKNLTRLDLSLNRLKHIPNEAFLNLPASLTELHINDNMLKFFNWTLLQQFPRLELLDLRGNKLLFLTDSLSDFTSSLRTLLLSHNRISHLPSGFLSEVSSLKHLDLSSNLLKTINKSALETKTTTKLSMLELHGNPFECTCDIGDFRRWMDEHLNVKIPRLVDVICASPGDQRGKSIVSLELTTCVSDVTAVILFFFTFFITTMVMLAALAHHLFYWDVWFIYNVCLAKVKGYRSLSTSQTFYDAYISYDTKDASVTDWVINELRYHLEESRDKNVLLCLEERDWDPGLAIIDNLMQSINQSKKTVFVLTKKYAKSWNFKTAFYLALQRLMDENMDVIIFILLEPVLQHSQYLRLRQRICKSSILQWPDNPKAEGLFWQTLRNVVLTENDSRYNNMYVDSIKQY
Method: (§1) Peripheral blood mononuclear cells (PBMCs) from human blood were isolated using BD Vacutainer Cell Preparation Tubes with sodium citrate. Cells were incubated with compound overnight. TLR8 activity was assayed by measuring the amount of TNFα in supernatants by ELISA. TLR7 activity was assayed by measuring the amount of IFNα in supernatants by ELISA (R&D Systems). […] The results of this assay are shown below in Tables 2 and 3.
(§2) MC50 numbers are represented as factors of ten, for example, + indicates an MC50 value of X 10^4, or a value in the tens of thousands of nanomolar (nM range); ++ indicates an MC50 value of X 10^3, or a value in the thousands; +++ indicates an MC50 value of X 10^2, or a value in the hundreds; and ++++ indicates an MC50 value of X 10^1 or 10^0, or a value in the tens or ones.

[2] = molecular target: T2, TLR7 (Homo sapiens, UniProt Q9NYK1); assay: PBMC assay for TLR7 (IFNα in supernatants by ELISA); assay type: cell-based; set-up: Peripheral blood mononuclear cells (PBMCs) from human blood were isolated; endogenous in cells; host or cells: human PBMCs; details: human PBMCs incubated with compound overnight, MC50 = concentration at which 50% of maximum induction is seen
T2 sequence (Q9NYK1 27-1049): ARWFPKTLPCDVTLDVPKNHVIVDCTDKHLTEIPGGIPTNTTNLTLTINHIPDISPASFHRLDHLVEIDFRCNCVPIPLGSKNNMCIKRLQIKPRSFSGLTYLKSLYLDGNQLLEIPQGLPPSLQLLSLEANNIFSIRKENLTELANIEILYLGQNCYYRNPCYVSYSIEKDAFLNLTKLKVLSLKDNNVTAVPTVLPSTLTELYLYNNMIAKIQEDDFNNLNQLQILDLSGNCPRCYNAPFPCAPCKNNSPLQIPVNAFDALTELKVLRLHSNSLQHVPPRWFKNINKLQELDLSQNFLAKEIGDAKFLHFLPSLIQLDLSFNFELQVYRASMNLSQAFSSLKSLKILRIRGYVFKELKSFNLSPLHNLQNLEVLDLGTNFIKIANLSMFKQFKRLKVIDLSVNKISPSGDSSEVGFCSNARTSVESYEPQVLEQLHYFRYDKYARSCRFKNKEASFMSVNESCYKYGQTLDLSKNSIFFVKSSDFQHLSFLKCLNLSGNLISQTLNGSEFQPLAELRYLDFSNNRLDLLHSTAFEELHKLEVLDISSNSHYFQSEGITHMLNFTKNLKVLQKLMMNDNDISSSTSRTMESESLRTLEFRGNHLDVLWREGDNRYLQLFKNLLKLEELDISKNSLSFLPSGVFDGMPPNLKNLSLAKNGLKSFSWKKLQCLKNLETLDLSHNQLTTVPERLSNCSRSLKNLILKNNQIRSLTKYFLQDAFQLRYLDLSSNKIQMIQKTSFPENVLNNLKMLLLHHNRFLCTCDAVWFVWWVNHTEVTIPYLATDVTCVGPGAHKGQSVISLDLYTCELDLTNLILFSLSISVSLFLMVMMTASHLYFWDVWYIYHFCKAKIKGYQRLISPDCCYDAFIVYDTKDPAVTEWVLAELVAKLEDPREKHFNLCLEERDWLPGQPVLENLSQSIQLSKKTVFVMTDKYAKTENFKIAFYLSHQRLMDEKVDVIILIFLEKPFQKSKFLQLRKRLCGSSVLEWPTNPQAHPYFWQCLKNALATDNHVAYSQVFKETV
Method: as §1, §2

Compound | pEC50 [1] | pEC50 [2]
CCCN(CC1CCNCC1)C(=O)C1=Cc2ccc(-c3ccc(C(=O)N4CCCC4)cc3)cc2N=C(N)C1 [Compound 113, (1E,4E)-2-amino-N-(piperidin-4-ylmethyl)-N-propyl-8-(4-(pyrrolidine-1-carbonyl)phenyl)-3H-benzo[b]azepine-4-carboxamide] | 6.00 to 7.00 | –
NC1=Nc2cc(-c3ccc(C(=O)N4CCCC4)cc3)ccc2C=C(C(=O)NOCc2ccccc2)C1 [Compound 116, (1E,4E)-2-amino-N-(benzyloxy)-8-(4-(pyrrolidine-1-carbonyl)phenyl)-3H-benzo[b]azepine-4-carboxamide] | 5.00 to 6.00 | 4.00 to 5.00
CCCN(OCc1ccccc1)C(=O)C1=Cc2ccc(-c3ccc(C(=O)N4CCCC4)cc3)cc2N=C(N)C1 [Compound 118, (1E,4E)-2-amino-N-(benzyloxy)-N-propyl-8-(4-(pyrrolidine-1-carbonyl)phenyl)-3H-benzo[b]azepine-4-carboxamide] | 7.00 to 9.00 | –
CCOC(=O)C1=Cc2ccc(OCc3ccccc3)cc2N=C(N)C1 [Compound 148, (1E,4E)-ethyl 2-amino-8-(benzyloxy)-3H-benzo[b]azepine-4-carboxylate] | 6.00 to 7.00 | –
CCCN(CC1CCCN1)C(=O)C1=Cc2ccc(-c3ccc(C(=O)N4CCCC4)cc3)cc2N=C(N)C1 (stereo not drawn) [Compound 175, (1E,4E)-2-amino-N-propyl-N-(pyrrolidin-2-ylmethyl)-8-(4-(pyrrolidine-1-carbonyl)phenyl)-3H-benzo[b]azepine-4-carboxamide] | 5.00 to 6.00 | –
CCCN(CCCS(N)(=O)=O)C(=O)C1=Cc2ccc(-c3ccc(C(=O)N4CCCC4)cc3)cc2N=C(N)C1 [Compound 177, (1E,4E)-2-amino-N-propyl-8-(4-(pyrrolidine-1-carbonyl)phenyl)-N-(3-sulfamoylpropyl)-3H-benzo[b]azepine-4-carboxamide] | 6.00 to 7.00 | –
CCCN(CCC)C(=O)C1=Cc2ccc(CCCN3CCOCC3)cc2N=C(N)C1 [Compound 184, (1E,4E)-2-amino-8-(3-morpholinopropyl)-N,N-dipropyl-3H-benzo[b]azepine-4-carboxamide] | 7.00 to 9.00 | 5.00 to 6.00
CCCN(CCC)C(=O)C1=Cc2ccc(OCc3ccccc3)cc2N=C(N)C1 [Compound 185, (1E,4E)-2-amino-8-(benzyloxy)-N,N-dipropyl-3H-benzo[b]azepine-4-carboxamide] | 6.00 to 7.00 | –
CCCN(CCC)C(=O)C1=Cc2ccc(-c3ccc(CC(=O)O)cc3)cc2N=C(N)C1 [Compound 191, 2-(4-((1E,4E)-2-Amino-4-(dipropylcarbamoyl)-3H-benzo[b]azepin-8-yl)phenyl)acetic acid] | 5.00 to 6.00 | 4.00 to 5.00
CCCN(CCC)C(=O)C1=Cc2ccc(-c3ccc(CC(=O)OCC)cc3)cc2N=C(N)C1 [Compound 192, Ethyl 2-(4-((1E,4E)-2-amino-4-(dipropylcarbamoyl)-3H-benzo[b]azepin-8-yl)phenyl)acetate] | 6.00 to 7.00 | 4.00 to 5.00
CCCN(CCC)C(=O)C1=Cc2ccc(-c3ccc(CCC(=O)OCC)cc3)cc2N=C(N)C1 [Compound 193, Ethyl 3-(4-((1E,4E)-2-amino-4-(dipropylcarbamoyl)-3H-benzo[b]azepin-8-yl)phenyl)propanoate] | 5.00 to 6.00 | 5.00 to 6.00
CCCN(CCC)C(=O)C1=Cc2ccc(-c3ccc(OCC(=O)O)cc3)cc2N=C(N)C1 [Compound 196, 2-(4-((1E,4E)-2-Amino-4-(dipropylcarbamoyl)-3H-benzo[b]azepin-8-yl)phenoxy)acetic acid] | 4.00 to 5.00 | –
CCCN(CCC)C(=O)C1=Cc2ccc(-c3ccc(OCC(=O)OCC)cc3)cc2N=C(N)C1 [Compound 197, Ethyl 2-(4-((1E,4E)-2-amino-4-(dipropylcarbamoyl)-3H-benzo[b]azepin-8-yl)phenoxy)acetate] | 6.00 to 7.00 | 5.00 to 6.00
CCCN(CCC)C(=O)C1=Cc2ccc(-c3ccc4c(c3)COC4=O)cc2N=C(N)C1 [Compound 198, (1E,4E)-2-Amino-8-(1-oxo-1,3-dihydroisobenzofuran-5-yl)-N,N-dipropyl-3H-benzo[b]azepine-4-carboxamide] | 6.00 to 7.00 | –
CCOC(=O)C1=Cc2ccc(CCCN3CCOCC3)cc2N=C(N)C1 [Compound 200, (1E,4E)-ethyl 2-amino-8-(3-morpholinopropyl)-3H-benzo[b]azepine-4-carboxylate] | 7.00 to 9.00 | –
CCCN(CCC)C(=O)C1=Cc2ccc(-c3ccc(C(=O)NCCCC(=O)OCc4ccccc4)cc3)cc2N=C(N)C1 [Compound 201, benzyl 4-(4-((1E,4E)-2-amino-4-(dipropylcarbamoyl)-3H-benzo[b]azepin-8-yl)benzamido)butanoate] | 6.00 to 7.00 | –
CCCN(CCC)C(=O)C1=Cc2ccc(-c3cccc(CC(=O)OCC)c3)cc2N=C(N)C1 [Compound 205, Ethyl 2-(3-((1E,4E)-2-amino-4-(dipropylcarbamoyl)-3H-benzo[b]azepin-8-yl)phenyl)acetate] | 6.00 to 7.00 | –
CCCN(CCCO)C(=O)C1=Cc2ccc(-c3ccc(CC(=O)OCC4CC4)cc3)cc2N=C(N)C1 [Compound 217, Cyclopropylmethyl 2-(4-((1E,4E)-2-amino-4-((3-hydroxypropyl)(propyl)carbamoyl)-3H-benzo[b]azepin-8-yl)phenyl)acetate] | 7.00 to 9.00 | –
CCCN(CCCO)C(=O)C1=Cc2ccc(-c3ccc(CC(=O)OCc4ccccc4)cc3)cc2N=C(N)C1 [Compound 218, Benzyl 2-(4-((1E,4E)-2-amino-4-((3-hydroxypropyl)(propyl)carbamoyl)-3H-benzo[b]azepin-8-yl)phenyl)acetate] | 6.00 to 7.00 | –
CCCN(CCCO)C(=O)C1=Cc2ccc(-c3ccc4c(c3)COC4=O)cc2N=C(N)C1 [Compound 221, (1E,4E)-2-Amino-N-(3-hydroxypropyl)-8-(1-oxo-1,3-dihydroisobenzofuran-5-yl)-N-propyl-3H-benzo[b]azepine-4-carboxamide] | 6.00 to 7.00 | –
CCCN(CCC)C(=O)C1=Cc2ccc(-c3ccc(OS(=O)(=O)C(F)(F)F)cc3)cc2N=C(N)C1 [Compound 226, 4-((1E,4E)-2-amino-4-(dipropylcarbamoyl)-3H-benzo[b]azepin-8-yl)phenyl trifluoromethanesulfonate] | 6.00 to 7.00 | –
